The values that follow come from US8153408B2, “Biocatalytic racemisation of alpha-hydroxyketones” (BASF SE, priority 2006, dated 2012).

Experiment [1] has as its system rehydrated lyophilised (resting) cells of Lactobacillus paracasei subsp. paracasei DSM 20207. As to the kind of experiment: Biocatalytic racemisation of acyloins 1-4 by whole resting cells. The experiment is classed as cell-based. Particulars: L. paracasei DSM 20207 cells; for Relative Rate (initial rate of racemisation relative to (R)-1 arbitrarily set as standard (100%)): aqueous BIS-TRIS buffer pH 6, 42° C.; for racemisation rate (in words): aqueous buffer at pH 6; for Racemization (extent of racemisation under standard conditions after 24 h): pH 6, 42° C. How it is done:
(§1) After 3 days, the cells were harvested by centrifugation (18000*g), lyophilised and stored at +4° C. For the biocatalytic racemisation, 50 mg of whole lyophilised cells were rehydrated in 0.5 ml aqueous BIS-TRIS buffer (50 mM, 10^−2 M MgCl2, pH 6) for 1 h at 42° C. with shaking at 150 rpm. Substrates 1-4 (5 mg) were added followed by shaking of the reaction mixture with 150 rpm at 42° C. for 24 h, 48 h and 72 h. Then the reaction mixture was extracted with ethyl acetate and the organic phase was dried over sodium sulfate. The organic phase was evaporated under reduced pressure and the residue was dissolved in HPLC-eluent. The determination the enantiomeric excess of the substrate was carried out by HPLC on a chiral stationary phase. Analysis of the enantiomeric composition versus time gave the initial rates of racemisation, which are represented as % with respect to substrate (R)-1 sert as standard (100%).
(§2) The biocatalytic racemisation of acyloins 1-4 was performed using rehydrated lyophilised (resting) cells of Lactobacillus paracasei subsp. paracasei DSM 20207 in aqueous buffer at pH 6, the racemisation of acyloins 5-6 by using rehydrated lyophilised (resting) cells of Lactobacillus halotoleransi DSM 20190.

Experiment [2] deals with rehydrated lyophilised (resting) cells of Lactobacillus halotoleransi DSM 20190. As to the kind of experiment: Biocatalytic racemisation of acyloins 5-6 by whole resting cells. Format: cell-based, Lactobacillus halotolerans DSM 20190. Particulars: L. halotolerans DSM 20190 cells; for Relative Rate (initial rate of racemisation relative to (R)-1 arbitrarily set as standard (100%)): aqueous BIS-TRIS buffer pH 6, 42° C.; for Racemization (extent of racemisation under standard conditions after 24 h): pH 6, 42° C. How it is done: as §1, §2

SMILES strings stand for the structures.

Turning to `CC(=O)[C@@H](C)O` [(R)-1, acetoin], in experiment [1], the “Relative Rate (initial rate of racemisation relative to (R)-1 arbitrarily set as standard (100%))” value was 100%, the “racemisation rate (in words)” value is given as “fast racemisation rate” and the “Racemization (extent of racemisation under standard conditions after 24 h)” value (shortened to “Racemization”) was determined as 86%.

On to `CC(=O)[C@H](O)c1ccccc1` [(R)-3, (R)-phenylacetylcarbinol], for which, in experiment [1], the “Relative Rate (initial rate of racemisation relative to (R)-1 arbitrarily set as standard (100%))” value is recorded as 67%, the “racemisation rate (in words)” value is listed as “High racemisation rates” and the “Racemization” value is 50%.

With `C[C@@H](O)C(=O)c1ccccc1` [(R)-4, (R)-2-hydroxypropiophenone], in experiment [1], the “Relative Rate (initial rate of racemisation relative to (R)-1 arbitrarily set as standard (100%))” value amounted to 65%, the “racemisation rate (in words)” value was “slightly reduced” and the “Racemization” value is 46%.

For `O=C1c2ccccc2CC[C@H]1O` [(R)-5, (R)-2-Hydroxy-1,2,3,4-tetranaphtalin-1-one], in experiment [2], the “racemisation (in words)” value is on record as “high racemisation”, the “Relative Rate (initial rate of racemisation relative to (R)-1 arbitrarily set as standard (100%))” value is on record as 77% and the “Racemization” value turned out to be 92%.

For the compound `O=C1c2ccccc2C[C@H]1O` [(R)-6, (R)-2-Hydroxyindane-1-one], in experiment [2], the “racemisation (in words)” value is reported as “high racemisation”, the “Relative Rate (initial rate of racemisation relative to (R)-1 arbitrarily set as standard (100%))” value is listed as 58% and the “Racemization” value was 84%.
